In patent US5874438A, “2,2'-bridged bis-2,4-diaminoquinazolines” (Bayer Aktiengesellschaft, priority 1996, dated 1999):

Tests used:
[1] = target: apamin-sensitive potassium channels; assay: Binding of ^125 I-apamin to bovine cerebral membrane; settings: ^125 I-apamin 30 pM, calf hippocampus membranes, 60 min on ice
Description: (§1) The compounds according to the invention are ligands for apamin-sensitive potassium channels. This can be shown by studying the affinity for apamine binding sites, e.g. in bovine cerebral membranes.
1) Binding of ^125 I-apamin to bovine cerebral membrane
Calf brains were obtained from the local abattoir. The hippocampus was prepared on ice and a membrane suspension was made up by homogenization twice in buffer (100 mM Tris-HCl, KCl 5 mM, pH 7.4) and centrifugation at 43,000×g. In a total volume of 500 μl, the incubation mixture contained 200 μg of membrane protein, 30 pM ^125 I-apamine and test substances in the concentration range 1×10^-9 to […]. The non-specific binding of ^125 I-apamin was determined in the presence of 1×10^-7 M unlabelled apamin.
After preincubation for 30 min at room temperature (test substances and membrane homogenate), the samples were placed on ice for 10 min before the radioligand was added. The main incubation time was 60 min on ice. When the reaction time had elapsed, an excess of ice-cooled incubation buffer was added to each sample and the mixture was filtered with suction through cellulose acetate/nitrate membrane filters. The amount of bound ^125 I-apamin was measured with a gamma counter.

[2] = test system: potassium channel (PC12 cells); assay: Non-radioactive Rb^+ efflux assay for the identification of potassium channel modulators; type: cell-based; settings: 50 mM KCl stimulation, 10 min
Description: as §1
2) Non-radioactive Rb^+ efflux assay for the identification of potassium channel modulators
The potassium in PC12 cells is exchanged with rubidium, which is not present in the cells. This exchange is performed by incubating the cells over a period of 4 h in a physiological buffer containing 5.4 mM RbCl without KCl. This rubidium subsequently serves as a tracer for potassium.
The cells laden with Rb^+ in this way are washed three times and then stimulated by depolarization with 50 mM KCl to open potassium channels (10 min), causing Rb^+ to flow out of the cells into the supernatant according to the concentration gradient. The rubidium contents in the cell supernatant and in the residual cells after they have been lysed with 1% Triton X-100 are then determined by means of atomic absorption spectroscopy. The relative proportion of rubidium in the cell supernatant (=Rb^+ efflux) is used as a measure of the potassium channel activity.
The effect of substances on the channel activity is measured by co-incubating the test substance over the ten-minute stimulation period and determining its effect on the Rb^+ efflux in the manner described above.

Q: With `CCN(CC)c1nc(N2CCCN(c3nc(N(CC)CC)c4ccccc4n3)CCC2)nc2ccccc12` [Example 1, 1,5-Bis-(4-diethylaminoquinazolin-2-yl)-[1,5]-diazoxane] as the compound, how does the Ki [1] read?
A: 0.34 µM

Q: How did the “% inhibition of the Rb efflux at a test concentration of 10 μM” value [2] turn out when `CCN(CC)c1nc(NCC23C=CC(CC2)C2CN(c4nc(N(CC)CC)c5ccccc5n4)CC23)nc2ccccc12.Cl.Cl` (stereo not shown) [Example 2, N^2-[4-(4-Diethylamino-quinazolin-2-yl)-4-aza-tricyclo[5.2.2.0^2,6]undec-8-en-1-yl-methyl]-N^4,N^4-diethyl-quinazoline-2,4-diamine dihydrochloride] was run?
A: 72%

Q: With `CCN(CC)c1nc(N2CCCN(c3nc(N(CC)CC)c4ccccc4n3)CC2)nc2ccccc12` [Example 3, 1,4-Bis-(4-diethylamino-2-quinazolyl)-1,4-diazacycloheptane] as the compound, how does the “% inhibition of the Rb efflux at a test concentration of 10 μM” value [2] read?
A: 63%

Q: How did the Ki [1] turn out when `CCN(CC)c1nc(N2CCCN(c3nc(N(CC)CC)c4cc(Cl)ccc4n3)CC2)nc2ccc(Cl)cc12` [Example 4, 1,4-Bis-(6-chloro-4-diethylamino-2-quinazolyl)-1,4-diazacycloheptane] was run?
A: 0.14 µM
